# Patent US9446039B2, “Aminoheteroaryl compounds as MTH1 inhibitors” (CEMM—FORSCHUNGSZENTRUM FÜR MOLEKULARE MEDIZIN GMBH, priority 2012, dated 2016)
# What was measured:
# [1] = target: T1, SW480 colon carcinoma cells lysate proteins (Homo sapiens, UniProt Q14444); type: binding; settings: PreyGene CAPRIN1
# T1 sequence (Q14444 1-709): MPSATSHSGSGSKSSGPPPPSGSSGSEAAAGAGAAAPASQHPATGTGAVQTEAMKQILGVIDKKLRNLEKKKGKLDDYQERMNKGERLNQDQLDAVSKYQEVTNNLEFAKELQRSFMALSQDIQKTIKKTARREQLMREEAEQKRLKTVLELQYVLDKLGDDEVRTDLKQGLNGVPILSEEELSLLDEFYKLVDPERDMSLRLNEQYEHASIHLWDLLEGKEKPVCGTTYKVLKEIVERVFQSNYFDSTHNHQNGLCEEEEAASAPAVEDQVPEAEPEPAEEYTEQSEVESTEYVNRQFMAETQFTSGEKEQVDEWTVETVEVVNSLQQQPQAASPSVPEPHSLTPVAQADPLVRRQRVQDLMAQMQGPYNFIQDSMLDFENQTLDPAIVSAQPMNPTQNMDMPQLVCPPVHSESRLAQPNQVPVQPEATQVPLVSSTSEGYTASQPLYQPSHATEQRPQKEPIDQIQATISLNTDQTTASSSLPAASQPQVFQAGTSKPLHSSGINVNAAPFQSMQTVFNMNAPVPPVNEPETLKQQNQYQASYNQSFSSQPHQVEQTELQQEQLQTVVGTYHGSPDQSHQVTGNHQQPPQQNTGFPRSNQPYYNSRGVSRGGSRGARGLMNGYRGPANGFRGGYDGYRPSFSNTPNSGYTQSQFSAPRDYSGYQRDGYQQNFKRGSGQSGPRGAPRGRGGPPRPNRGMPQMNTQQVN
# [2] = target: SW480 colon carcinoma cells lysate proteins (Homo sapiens, UniProt Q15056); type: binding; settings: PreyGene EIF4H
# [3] = target: T2, SW480 colon carcinoma cells lysate proteins (Homo sapiens, UniProt P30041); type: binding; settings: PreyGene PRDX6
# T2 sequence (P30041 1-224): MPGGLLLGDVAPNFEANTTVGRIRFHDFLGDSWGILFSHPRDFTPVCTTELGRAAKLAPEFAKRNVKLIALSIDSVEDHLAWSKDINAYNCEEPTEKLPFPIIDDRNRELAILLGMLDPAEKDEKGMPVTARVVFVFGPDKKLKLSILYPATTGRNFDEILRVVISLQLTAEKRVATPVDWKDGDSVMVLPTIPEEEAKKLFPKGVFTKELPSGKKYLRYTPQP
# [4] = target: SW480 colon carcinoma cells lysate proteins (Homo sapiens, UniProt P37802); type: binding; settings: PreyGene TAGLN2
# Chain of SW480 colon carcinoma cells lysate proteins (Homo sapiens, UniProt P37802) (P37802 whole entry): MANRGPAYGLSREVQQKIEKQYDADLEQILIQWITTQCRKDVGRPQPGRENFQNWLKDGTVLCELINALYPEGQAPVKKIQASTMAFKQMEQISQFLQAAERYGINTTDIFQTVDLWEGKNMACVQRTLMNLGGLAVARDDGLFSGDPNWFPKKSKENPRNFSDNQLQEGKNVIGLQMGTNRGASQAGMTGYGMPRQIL
# [5] = target: T3, SW480 colon carcinoma cells lysate proteins (Homo sapiens, UniProt Q07021); type: binding; settings: PreyGene C1QBP
# T3 sequence (Q07021 74-282): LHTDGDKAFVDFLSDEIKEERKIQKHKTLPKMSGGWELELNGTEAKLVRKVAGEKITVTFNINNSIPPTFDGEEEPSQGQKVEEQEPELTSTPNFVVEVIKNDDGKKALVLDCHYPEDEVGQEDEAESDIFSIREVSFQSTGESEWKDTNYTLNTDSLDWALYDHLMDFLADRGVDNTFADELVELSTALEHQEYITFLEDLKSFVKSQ
# [6] = target: T4, SW480 colon carcinoma cells lysate proteins (Homo sapiens, UniProt P06454); type: binding; settings: PreyGene PTMA
# T4 sequence (P06454 1-111): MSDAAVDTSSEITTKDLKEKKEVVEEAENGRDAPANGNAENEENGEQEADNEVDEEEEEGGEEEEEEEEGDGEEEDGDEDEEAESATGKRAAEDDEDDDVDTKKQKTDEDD
# [7] = target: SW480 colon carcinoma cells lysate proteins (Homo sapiens, UniProt Q00610); type: binding; settings: PreyGene CLTC; SW480 cells
# Chain of SW480 colon carcinoma cells lysate proteins (Homo sapiens, UniProt Q00610) (Q00610 whole entry): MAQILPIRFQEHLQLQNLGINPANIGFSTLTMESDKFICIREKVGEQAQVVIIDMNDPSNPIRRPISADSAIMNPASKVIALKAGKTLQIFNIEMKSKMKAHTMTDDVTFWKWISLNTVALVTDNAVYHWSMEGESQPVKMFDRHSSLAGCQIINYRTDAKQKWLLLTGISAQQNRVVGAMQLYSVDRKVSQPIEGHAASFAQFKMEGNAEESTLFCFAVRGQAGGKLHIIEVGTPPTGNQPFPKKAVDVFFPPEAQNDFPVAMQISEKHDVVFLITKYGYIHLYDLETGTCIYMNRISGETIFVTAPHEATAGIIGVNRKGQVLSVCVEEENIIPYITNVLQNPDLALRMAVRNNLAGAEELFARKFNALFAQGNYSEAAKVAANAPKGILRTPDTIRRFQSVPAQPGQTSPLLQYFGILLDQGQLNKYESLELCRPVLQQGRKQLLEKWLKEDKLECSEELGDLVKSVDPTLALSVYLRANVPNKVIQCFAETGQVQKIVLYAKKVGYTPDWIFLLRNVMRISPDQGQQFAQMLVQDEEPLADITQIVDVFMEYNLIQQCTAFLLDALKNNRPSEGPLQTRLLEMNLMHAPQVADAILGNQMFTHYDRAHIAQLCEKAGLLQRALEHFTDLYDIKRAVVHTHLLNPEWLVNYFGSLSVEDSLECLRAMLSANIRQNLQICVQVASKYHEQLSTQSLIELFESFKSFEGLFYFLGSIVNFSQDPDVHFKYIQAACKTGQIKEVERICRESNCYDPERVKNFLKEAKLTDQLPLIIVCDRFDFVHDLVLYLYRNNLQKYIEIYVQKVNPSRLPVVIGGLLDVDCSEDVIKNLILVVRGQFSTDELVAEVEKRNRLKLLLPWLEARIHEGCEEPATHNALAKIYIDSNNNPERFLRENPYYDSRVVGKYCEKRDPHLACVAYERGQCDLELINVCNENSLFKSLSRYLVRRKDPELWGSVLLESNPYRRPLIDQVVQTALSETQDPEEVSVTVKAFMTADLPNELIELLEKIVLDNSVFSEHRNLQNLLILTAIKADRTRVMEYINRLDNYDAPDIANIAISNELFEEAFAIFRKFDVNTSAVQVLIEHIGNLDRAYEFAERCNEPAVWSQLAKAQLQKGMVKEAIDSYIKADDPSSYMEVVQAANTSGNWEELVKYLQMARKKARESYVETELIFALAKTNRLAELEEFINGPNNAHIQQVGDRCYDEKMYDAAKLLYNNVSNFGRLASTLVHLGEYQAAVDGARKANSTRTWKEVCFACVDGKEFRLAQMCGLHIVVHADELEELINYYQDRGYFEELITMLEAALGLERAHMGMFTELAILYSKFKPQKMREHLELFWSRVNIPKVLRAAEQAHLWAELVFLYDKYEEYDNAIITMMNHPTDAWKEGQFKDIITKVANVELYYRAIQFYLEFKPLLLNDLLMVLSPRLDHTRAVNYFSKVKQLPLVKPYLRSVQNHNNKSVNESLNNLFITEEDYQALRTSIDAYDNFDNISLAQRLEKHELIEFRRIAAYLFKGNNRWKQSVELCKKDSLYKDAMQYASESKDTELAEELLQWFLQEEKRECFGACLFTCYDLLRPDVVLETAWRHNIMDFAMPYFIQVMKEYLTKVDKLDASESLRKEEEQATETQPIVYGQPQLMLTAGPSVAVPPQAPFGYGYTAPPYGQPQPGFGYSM
# [8] = target: SW480 colon carcinoma cells lysate proteins (Homo sapiens, UniProt P12004); type: binding; settings: PreyGene PCNA
# Chain of SW480 colon carcinoma cells lysate proteins (Homo sapiens, UniProt P12004) (P12004 whole entry): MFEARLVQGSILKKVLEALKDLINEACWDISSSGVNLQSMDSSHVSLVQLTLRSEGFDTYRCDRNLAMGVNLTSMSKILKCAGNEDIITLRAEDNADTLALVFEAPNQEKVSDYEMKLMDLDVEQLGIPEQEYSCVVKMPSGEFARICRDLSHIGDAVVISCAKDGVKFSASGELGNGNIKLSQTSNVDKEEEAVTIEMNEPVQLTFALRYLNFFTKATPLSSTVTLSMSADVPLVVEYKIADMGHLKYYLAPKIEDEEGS
# [9] = test system: SW480 colon carcinoma cells lysate proteins; type: binding, human; settings: PreyGene EIF3C, EIF3CL; SW480 cells
# [10] = target: SW480 colon carcinoma cells lysate proteins (Homo sapiens, UniProt Q92598); type: binding; settings: PreyGene HSPH1
# Chain of SW480 colon carcinoma cells lysate proteins (Homo sapiens, UniProt Q92598) (Q92598 whole entry): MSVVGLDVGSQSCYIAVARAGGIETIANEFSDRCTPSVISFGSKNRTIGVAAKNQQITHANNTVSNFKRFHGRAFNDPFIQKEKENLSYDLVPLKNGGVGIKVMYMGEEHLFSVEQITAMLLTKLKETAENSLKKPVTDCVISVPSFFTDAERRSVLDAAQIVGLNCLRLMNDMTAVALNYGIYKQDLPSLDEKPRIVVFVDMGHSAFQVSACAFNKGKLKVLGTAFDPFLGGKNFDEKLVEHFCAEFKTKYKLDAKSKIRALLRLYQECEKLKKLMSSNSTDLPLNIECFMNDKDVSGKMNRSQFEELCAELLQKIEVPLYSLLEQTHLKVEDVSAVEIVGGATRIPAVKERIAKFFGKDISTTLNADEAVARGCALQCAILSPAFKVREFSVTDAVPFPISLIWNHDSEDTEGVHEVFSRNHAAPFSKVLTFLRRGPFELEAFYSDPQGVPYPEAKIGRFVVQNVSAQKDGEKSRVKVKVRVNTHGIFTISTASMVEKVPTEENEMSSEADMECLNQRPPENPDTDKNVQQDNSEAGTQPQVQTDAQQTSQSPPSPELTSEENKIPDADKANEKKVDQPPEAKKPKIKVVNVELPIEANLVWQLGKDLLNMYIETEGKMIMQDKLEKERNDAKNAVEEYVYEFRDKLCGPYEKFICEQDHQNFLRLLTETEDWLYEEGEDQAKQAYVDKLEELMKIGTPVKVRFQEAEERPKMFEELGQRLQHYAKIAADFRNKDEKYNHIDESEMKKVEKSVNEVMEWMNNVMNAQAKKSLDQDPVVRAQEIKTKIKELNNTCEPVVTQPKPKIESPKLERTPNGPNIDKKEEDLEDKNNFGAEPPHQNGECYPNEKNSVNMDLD
# [11] = target: SW480 colon carcinoma cells lysate proteins (Homo sapiens, UniProt P61204); type: binding; settings: PreyGene ARF3
# Chain of SW480 colon carcinoma cells lysate proteins (Homo sapiens, UniProt P61204) (P61204 whole entry): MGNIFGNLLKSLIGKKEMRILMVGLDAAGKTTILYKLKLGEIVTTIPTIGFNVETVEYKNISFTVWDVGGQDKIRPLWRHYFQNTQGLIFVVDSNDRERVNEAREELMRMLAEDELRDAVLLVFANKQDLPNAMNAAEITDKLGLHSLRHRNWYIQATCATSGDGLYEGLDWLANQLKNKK
structure (smiles),measurement,setting,value
C[C@H](Oc1cc(-c2cnn(C3CCNCC3)c2)cnc1N)c1c(Cl)ccc(F)c1Cl [(5)-crizotinib],AvgP,[1],0.2355
same,SC.Exp. 1-1,[1],2
same,SC.Exp. 1-2,[1],2
same,SC.Exp. 2-1,[1],0
same,SC.Exp. 2-2,[1],0
same,Sum (SC.Exp.),[1],4
same,AvgP,[2],0.4095
same,SC.Exp. 1-1,[2],3
same,SC.Exp. 1-2,[2],2
same,SC.Exp. 2-1,[2],0
same,SC.Exp. 2-2,[2],0
same,Sum (SC.Exp.),[2],5
same,AvgP,[3],0.1992
same,SC.Exp. 1-1,[3],8
same,SC.Exp. 1-2,[3],8
same,SC.Exp. 2-1,[3],0
same,SC.Exp. 2-2,[3],0
same,Sum (SC.Exp.),[3],16
same,AvgP,[4],0.1795
same,SC.Exp. 1-1,[4],6
same,SC.Exp. 1-2,[4],5
same,SC.Exp. 2-1,[4],0
same,SC.Exp. 2-2,[4],0
same,Sum (SC.Exp.),[4],11
same,AvgP,[5],0.33
same,SC.Exp. 1-1,[5],3
same,SC.Exp. 1-2,[5],3
same,SC.Exp. 2-1,[5],0
same,SC.Exp. 2-2,[5],0
same,Sum (SC.Exp.),[5],6
same,AvgP,[6],0.3707
same,SC.Exp. 1-1,[6],2
same,SC.Exp. 1-2,[6],2
same,SC.Exp. 2-1,[6],0
same,SC.Exp. 2-2,[6],0
same,Sum (SC.Exp.),[6],4
same,AvgP,[7],0
same,SC.Exp. 1-1,[7],16
same,SC.Exp. 1-2,[7],14
same,SC.Exp. 2-1,[7],5
same,SC.Exp. 2-2,[7],7
same,SC.Exp. Sum,[7],42
same,AvgP,[8],0.3137
same,SC.Exp. 1-1,[8],2
same,SC.Exp. 1-2,[8],1
same,SC.Exp. 2-1,[8],0
same,SC.Exp. 2-2,[8],0
same,Sum (SC.Exp.),[8],3
same,AvgP,[9],0
same,SC.Exp. 1-1,[9],4
same,SC.Exp. 1-2,[9],6
same,SC.Exp. 2-1,[9],7
same,SC.Exp. 2-2,[9],7
same,SC.Exp. Sum,[9],24
same,AvgP,[10],0.4697
same,SC.Exp. 1-1,[10],7
same,SC.Exp. 1-2,[10],5
same,SC.Exp. 2-1,[10],0
same,SC.Exp. 2-2,[10],0
same,Sum (SC.Exp.),[10],12
same,AvgP,[11],0.1881
same,SC.Exp. 1-1,[11],2
same,SC.Exp. 1-2,[11],0
same,SC.Exp. 2-1,[11],0
same,SC.Exp. 2-2,[11],0
same,Sum (SC.Exp.),[11],2
